How the values were obtained:
VEGF109 = biological target: T1, VEGF109 (Homo sapiens, UniProt P15692); assay: Inhibition of labeled VEGF109 binding to its receptors; conditions: FIG. 9
T1 construct: made in house; host or cells: E. coli BL21(DE3)pLysS, inclusion bodies
T1 sequence (P15692 27-135 isoform P15692-4): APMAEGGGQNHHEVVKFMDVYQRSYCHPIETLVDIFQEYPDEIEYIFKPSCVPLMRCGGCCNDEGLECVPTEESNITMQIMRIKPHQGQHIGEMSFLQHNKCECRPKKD
Source text: (§1) In order to verify this postulation, Sequence 1 (RRKRRR) was examined for the common binding domain on VEGF because it inhibited the binding of VEGF to its receptors at the highest efficiency. First, appropriate primers were synthesized and used to amplify various cDNAs coding for VEGF165, VEGF121, VEFG8-121, VEGF109, and VEGF8-109 while a human liver cDNA library (Clontech) served as a template. After being inserted to plasmid pRSET A (Invitrogen), the cDNAs were sequenced. The resulting five pRSET A vectors, each having one of the five cDNAs, were introduced into an expression strain (BL21(DE3)pLysS) containing T7 RNA polymerase. […] The purified VEGFs were quantified by use of a protein assay reagent (Bio-Rad) and all found to bind to VEGF receptors and exert growth hormone activity on HUVEC. […] For use, each labeled protein was quantified by ELISA (enzyme-linked immunosorbent assay) using a mouse monoclonal anti-VEGF antibody (R&D systems).
(§2) Each peptide was examined for antagonistic activity against VEGF in the same manner as in Example 2. Referring to FIG. 9, the radioactivity measured from ^125I-labeled VEGF associated with fixed Sequence 1 (RRKRRR) (SEQ ID NO: 1) is plotted in the absence of competitors and in the presence of competitors for various VEGF isomers. […]

HUVEC = assay: Toxicity of peptides to HUVEC in the absence of VEGF (thymidine incorporation); assay type: cell-based, human; conditions: 100 μM peptide
Experimental: In a gelatin-coated 48-well plate (Nunc) HUVEC were cultured at a density of 10^4 cells/well at 37° C. for one day, followed by washing the cells three times with serum-free medium 199. After being added with culture media containing VEGF (10 ng/ml, R&D systems) and various concentrations of the screened peptides, the cells were cultured at 37° C. After 24 hours of culturing, the cells were added with [methyl-^3H] thymidine (0.5 μCi/well) and cultured for an additional one day. Before quantification of the radioactivity used for the DNA synthesis with the aid of a liquid scintillation counter, the cells were washed with PBS containing 0.1% albumin, treated with 0.4 N NaOH at room temperature for 20 min for cell lysis, and neutralized with 2 N HCl. In order to determine the toxicity of the peptides, HUVEC were examined as in above using excess peptide (100 μM) in the absence of VEGF.
With reference to FIG. 10b, the radioactivity of the thymidine inserted into the genome of HUVEC is measured in the absence of no peptides and in the presence of 100 μM of each of the three peptides.

[1] = system: HM7 (human colon carcinoma cell line); assay: Subcutaneous HM7 tumor growth in athymic nude mice; assay type: in vivo; conditions: after 15 days of subcutaneous injection
Experimental: From the next day, a solution of each peptide in PBS (0.5 μg/100 μl/day) was subcutaneously injected to the mice for 15 days. Sizes of the tumors thus formed were periodically measured while tumor volumes were calculated according to the following formula: Tumor Size=0.5×(Diameter)^2×length

VEGF8-121 = biological target: T2, VEGF8-121 (Homo sapiens, UniProt P15692); assay: Inhibition of labeled VEGF8-121 binding to its receptors; conditions: FIG. 9
T2 construct: made in house; host or cells: E. coli BL21(DE3)pLysS, inclusion bodies
T2 sequence (P15692 34-147 isoform P15692-9): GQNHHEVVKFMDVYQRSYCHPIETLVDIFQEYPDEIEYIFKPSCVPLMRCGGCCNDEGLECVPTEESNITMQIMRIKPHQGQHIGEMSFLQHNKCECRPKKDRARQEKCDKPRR
Source text: as §1, §2

VEGF121 = biological target: T3, VEGF121 (Homo sapiens, UniProt P15692); assay: Inhibition of labeled VEGF121 binding to its receptors; conditions: heparin-binding domain-deficient isoform, FIG. 9
T3 construct: made in house; host or cells: E. coli BL21(DE3)pLysS, inclusion bodies
T3 sequence (P15692 27-147 isoform P15692-9): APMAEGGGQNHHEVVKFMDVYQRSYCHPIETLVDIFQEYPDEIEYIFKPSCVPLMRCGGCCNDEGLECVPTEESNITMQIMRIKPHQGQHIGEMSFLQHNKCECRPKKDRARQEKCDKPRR
Source text: as §1, §2

[2] = system: egg CAM (chorioallantoic membranes); assay: Egg CAM assay, angiogenesis induced by VEGF; assay type: in vivo; conditions: VEGF 10 ng/egg alone or with 1 μg sample; for Angiogenic activity(%): (standard deviation)
Experimental: Fertilized eggs (Pulmuwon, Korea) were incubated at 37° C. under a humidity of 90%. After three days of culturing, the eggs were deprived of about 2 ml of albumin. After four days, eggs were partially deprived of the sheath to make a window with a size of 2×2 cm.
After VEGF (10 ng/egg) was mixed with various amounts of peptides or other samples, 3 μl of each mixture was dropped onto ¼ fraction pieces of thermanox coverslips (Nunc) and dried. The pieces were placed on CAM of 9-day embryonic eggs.
Two days later, the samples were independently observed under anatomical microscopes by two different persons to determine whether new blood vessels are induced by the dropped samples or not. In this regard, the experiment was repeated at least three times using 10 or more eggs per sample and the results are given in Table 5, below.

[3] = Acute toxicity test on rat upon non-oral administration; assay type: in vivo; conditions: 1 mg/kg, intramuscular injection; for LD50: rat, in vivo, im, SD rats, read-out: lethal dose (LD50)
Experimental: Using specific pathogen-free (SPF) SD rats which were six weeks old, the peptides of Sequences 1, 2, and 3 were tested for acute toxicity. Suspensions of the peptides in 1 ml of PBS were administered at a dose of 1 mg/kg to the rats, which were grouped in twos, by intramuscular injection. […] An autopsy was made of the rats with the naked eye to observe whether their abdominal and thoracic organs were damaged. Neither sudden death nor noticeable clinical symptoms were detected in any of the animals administered with the peptides of interest.

VEGF8-109 = biological target: T4, VEGF8-109 (Homo sapiens, UniProt P15692); assay: Inhibition of labeled VEGF8-109 binding to its receptors; conditions: FIG. 9
T4 construct: made in house; host or cells: E. coli BL21(DE3)pLysS, inclusion bodies
T4 sequence (P15692 214-315): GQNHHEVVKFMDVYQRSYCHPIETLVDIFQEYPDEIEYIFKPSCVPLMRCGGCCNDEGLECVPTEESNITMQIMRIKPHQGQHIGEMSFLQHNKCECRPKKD
Source text: as §1, §2

Molecule: H-RRKRRR-NH2 [compound 8, NH2-Arg-Arg-Lys-Arg-Arg-Arg-CONH2]
- inhibition of binding of VEGF109 to its receptors (VEGF109): not inhibited
- direct influence on growth of HUVEC / cytotoxicity to endothelial cells (HUVEC): damage neither
- effect on tumor size / growth of human colon carcinoma cells in mice [1]: effectively inhibits the growth of human colon carcinoma cells in mice
- decrease of tumor size compared to the control (PBS) ([1]; 0.5 μg/100 μl/day): about 28%
- inhibition of binding of VEGF8-121 to its receptors (VEGF8-121): not inhibited
- inhibition of binding of labeled VEGF121 to its receptors (VEGF121): inhibited
- Angiogenic activity eggs/total eggs [2]: 4/26
- Angiogenic activity(%) [2]: 15.6(5.1) %
- toxic changes to the rats [3]: no toxic changes
- LD50 [3]: ≥ 1 mg/kg
- inhibition of binding of VEGF8-109 to its receptors (VEGF8-109): not inhibited

Molecule: H-RKKRKR-NH2 [compound 1, NH2-Arg-Lys-Lys-Arg-Lys-Arg-CONH2]
- direct influence on growth of HUVEC / cytotoxicity to endothelial cells (HUVEC): damage neither
- Angiogenic activity eggs/total eggs [2]: 4/26
- Angiogenic activity(%) [2]: 15.6(4.5) %
- toxic changes to the rats [3]: no toxic changes
- LD50 [3]: ≥ 1 mg/kg

Molecule: N=C(N)NCCC[C@H](NC(=O)[C@H](CCCNC(=N)N)NC(=O)[C@H](CCCNC(=N)N)NC(=O)[C@H](CCCNC(=N)N)NC(=O)[C@H](CCCNC(=N)N)NC(=O)[C@@H](N)CCCNC(=N)N)C(N)=O [compound 11, NH2-Arg-Arg-Arg-Arg-Arg-Arg-CONH2]
- direct influence on growth of HUVEC / cytotoxicity to endothelial cells (HUVEC): damage neither
- Angiogenic activity eggs/total eggs [2]: 4/26
- Angiogenic activity(%) [2]: 15.6(5.1) %
- toxic changes to the rats [3]: no toxic changes
- LD50 [3]: ≥ 1 mg/kg

— US7291601B1, “Arginine-rich anti-vascular endothelial growth factor peptides that inhibit growth and metastasis of human tumor cells by blocking angiogenesis” (Korea Greencross Corp., priority 1999, dated 2007)
